This note sets out measurements from patent US20240300882A1, “CRYSTALLINE FORMS OF A DIFFUSION ENHANCING COMPOUND” (DIFFUSION PHARMACEUTICALS LLC, priority 2021, published 2024).

Format in all cases: physicochemical
Data set [1] can be described thus: Competitive slurry experiments, wet solid analysed by XRPD. The method, then: Sample preparation is carried out in a nitrogen glove box. Saturated solutions of TSC from Example 2 are prepared at a given temperature. The volume of each solution is about 1.5 mL and it is deemed saturated if excess solid remains after stirring for 2 hours. The sample is then centrifuged and the mother liquor is transferred to a vial containing equal amounts of each polymorph, about 10 mg each. The vials are capped and sealed with parafilm, and the slurries are then stirred magnetically at a given temperature for 5 days. Each sample is then centrifuged, the mother liquor decanted, and the wet solid immediately analyzed by XRPD.
Competitive slurry experiments involving Crystalline Forms A through E are carried out at three different temperatures using three different solvent systems (Table 2). […] At 50° C., the slurries in 1:1 acetone:water and 1:1 acetonitrile:water produce a mixture of Crystalline Forms A and B and Crystalline Form A, respectively. Although both solvent systems contain significant amounts of water, the slurries are carried out at a temperature at which Crystalline Form B is known to lose volatiles. […] That is probably the reason that Crystalline Form A results from the higher-temperature slurries in water-containing solvents.
Additional competitive slurry experiments are carried out between Crystalline Forms A, B, and F (Table 3). The data are consistent with the results in Example 10. […] The elevated temperature aqueous slurry data is also consistent with Example 10. Crystalline Form A is observed in aqueous media at 50° C. In the case of the 1:1 ethanol:water slurry, the XRPD pattern of the resulting material matches that of Crystalline Form A but contains several unidentified peaks.

Data set [2] is described as follows: Heating to 100° C. in a TG furnace, then XRPD. The conditions noted are these: Heat to 100° C., hold 1 minute. Here is the method: Crystalline Forms A and B are heated to 100° C. in a TG furnace, held at that temperature for 1 minute, and immediately analyzed by XRPD.
A short description of data set [3]: Dynamic vapor sorption (DVS) analysis. Particulars: for Form by XRPD after DVS analysis: exposed up to 95% RH and down to 5% RH. Here is the method:
DVS analysis is carried out using a TA Instruments Q5000 Dynamic Vapor Sorption analyzer. The instrument is calibrated with standard weights and a sodium bromide standard for humidity. Approximately 10-25 mg (e.g., 20 mg) or 5-15 mg of sample is loaded into a metal-coated quartz pan for analysis. The sample is analyzed at 25° C. with a maximum equilibration time of one hour in 10% relative humidity (RH) steps from 5 to 95% RH (adsorption cycle) and from 95 to 5% RH (desorption cycle). The movement from one step to the next occurred either after satisfying the equilibrium criterion of 0.01% weight change or, if the equilibrium criterion is not met, after one hour. The percent weight change values are calculated using Microsoft Excel®. The temperature for the DVS analysis may impact the outcome of the results.

A short description of data set [4]: XRPD under a nitrogen stream of variable relative humidity. The method, then:
Form H from Example 25 is measured under different relative humidities. The humidity measurements are made on a powder diffractometer X'Pert, PANalytical (G.16.SYS.S006) using CuKα radiation. Measuring conditions: tube power 40 kV/40 mA, scan range 1°-50° (2θ), step size 0.02°, time per step 2.4 seconds. The sample is measured in a 0.4 mm deep sample holder in a closed chamber under a stream of nitrogen of variable relative humidity (RH). The humidity of the nitrogen stream is controlled by varying the relative amount of humid and dry nitrogen gas. The sample is first conditioned one hour with a dry nitrogen stream and then a first XPRD is taken. The humidity of the gas stream is then changed to 50% RH and the sample is conditioned three hours to the new RH prior to a second XRPD measurement. After 10 more hours with 50% RH, a third XRPD is taken.

Data set [5] in a line: Solid-state stability in relative humidity jars, analysed by XRPD. Particulars: up to 4 weeks at 25° C./60% RH and 40° C./75% RH. The method, then:
The solid-state stability of TSC Crystalline Forms A and F are evaluated at 25° C./60% relative humidity (RH) and 40° C./75% RH.
To a 1-dram glass vial is added approximately 20 mg of TSC Crystalline Form A or F. The open vials are placed in relative humidity (RH) jars. The RH in each jar is controlled by a saturated salt solution (sodium bromide for 60% RH and sodium chloride for 75% RH). The RH jars are purged with nitrogen and sealed. The sealed RH jars are placed in ovens set at the appropriate temperatures. The materials are analyzed at given time points by XRPD.

Data set [6] can be described thus: Equilibrium solubility shake-flask method, 24-hour slurry, XRPD result. The conditions noted are these: water and ethanol. The method, then: Solubility is evaluated using shake-flask method at room temperature. Individual samples are prepared as follows: Approximately 20 mg of TSC Forms A, F, and J are placed in a 1-dram glass vial. To each vial is added 1.5 mL of media. The vials are then placed in an incubation chamber at room temperature with shaking at 150 rpm. After 24 hours the vials are removed and each slurry is vacuum filtered. The mother liquor is diluted 1:10 with the respective media for that sample and analyzed by HPLC. Water used is HPLC grade. Ethanol used in absolute, HPLC grade.

Data set [7] in a line: Physical stability of Crystalline Form F under slurry conditions, XRPD. The conditions noted are these: anhydrous ethanol and ethanol with 1 and 5% water, ambient temperature, up to 4 days. Here is the method:
The physical stability of Crystalline Form F is evaluated when it is slurried in three solvent systems (anhydrous ethanol and ethanol containing both 1 and 5% water by volume) at ambient temperature.
To a 1-dram glass vial is added approximately 20 mg of TSC Crystalline Form F and 1 mL of a given solvent. The slurry is stirred at room temperature for a given amount of time. The vial is then centrifuged, the mother liquor decanted, and the wet solid is analyzed by XRPD.

With `CC(/C=C/C=C(\C)C(=O)[O-])=C\C=C\C=C(C)\C=C\C=C(/C)C(=O)[O-].[Na+].[Na+]` [Crystalline Form B, trans sodium crocetinate], the “Relative stability of the forms” value in data set [1] (aqueous conditions) is “most stable form”; in data set [1] (between 2 and 55° C. in 1:1 ethanol:water (v/v)) it was “more stable than Forms A, C, D, E, and F”. The “XRPD pattern after heating” value in data set [2] was “converts to Crystalline Form F”.

`CC(/C=C/C=C(\C)C(=O)[O-])=C\C=C\C=C(C)\C=C\C=C(/C)C(=O)[O-].[Na+].[Na+]` [Example 20, trans sodium crocetinate]: the “Form by XRPD after DVS analysis” value in data set [3] was “remains unchanged”.

`CC(/C=C/C=C(\C)C(=O)[O-])=C\C=C\C=C(C)\C=C\C=C(/C)C(=O)[O-].[Na+].[Na+]` [Form H, trans sodium crocetinate]: the “Form on exposure to different relative humidities” value in data set [4] is “changes form”. Moreover, the “Form by XRPD after humidity exposure” value was “Form G” in data set [4] (0% RH, dry nitrogen stream, one hour); “no difference between the second and third XRPDs” in data set [4] (50% RH, 10 more hours (third XRPD)); “Form E” in data set [4] (50% RH, three hours).

Take “trans sodium crocetinate [Crystalline Form A]”: the maximum water absorption result in data set [3] (DVS, 25° C., 5 to 95% RH) is reported as “about 2.5%”. For the same compound, the “Form by XRPD after DVS analysis” value in data set [3] is on record as “remains unchanged”. In addition, the “Relative stability of the forms” value was “more stable than Forms B through E” in data set [1] (between 2 and 50° C. in methanol); “more stable than Forms B through F” in data set [1] (between 2 and 55° C. in absolute ethanol and absolute ethanol containing either 10% methanol or toluene); “most stable form” in data set [1] (non-aqueous conditions). Besides, the “Solid-state stability of the form” value in data set [5] is “remain unchanged”. For the same compound, in data set [6], the “Form after 24-hour slurry experiments” value is given as “remain unchanged”. The “XRPD pattern after heating” value in data set [2] is “remains unchanged”.

On to “trans sodium crocetinate [Crystalline Form F]”, for which the “Form by XRPD after DVS analysis” value in data set [3] is given as “remains unchanged”. Further, the “Solid-state stability of the form” value in data set [5] is reported as “remain unchanged”. Besides, in data set [6], the “Form after 24-hour slurry experiments” value is on record as “remain unchanged”. The “Physical stability of the form when slurried” value in data set [7] is listed as “remains unchanged”.

With “trans sodium crocetinate [Crystalline Form J]”, the “Form after 24-hour slurry experiments” value in data set [6] is “exhibits form conversion”.
